Source: BindingDB's records for doi:10.1111/cbdd.12840 (Miranda House, 2017)
pIC50: −log10 of the molar value.

Target: T1, Putative FAD-containing monooxygenase MymA (Mycobacterium tuberculosis (strain ATCC 25618 / H37Rv), UniProt P9WNF7)
T1 sequence (P9WNF7 whole entry): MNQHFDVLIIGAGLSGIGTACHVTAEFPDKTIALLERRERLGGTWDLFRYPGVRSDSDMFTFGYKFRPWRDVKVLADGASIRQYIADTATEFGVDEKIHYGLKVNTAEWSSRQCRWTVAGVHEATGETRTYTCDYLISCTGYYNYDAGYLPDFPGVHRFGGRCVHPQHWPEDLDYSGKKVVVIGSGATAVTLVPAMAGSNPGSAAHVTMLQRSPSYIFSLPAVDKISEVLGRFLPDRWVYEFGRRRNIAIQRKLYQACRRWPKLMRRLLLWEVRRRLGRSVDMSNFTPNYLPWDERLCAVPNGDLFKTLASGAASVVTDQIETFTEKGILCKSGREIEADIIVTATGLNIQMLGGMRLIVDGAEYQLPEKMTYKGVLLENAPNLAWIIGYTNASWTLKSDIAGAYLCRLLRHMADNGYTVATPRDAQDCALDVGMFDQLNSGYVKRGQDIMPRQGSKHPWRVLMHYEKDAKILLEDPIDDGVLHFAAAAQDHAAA
Assay: MymA Inhibition Assay
Description: Inhibition of MymA activity by INH was checked using different concentrations (0-12 um) of INH, 100 um of trimeth-ylamine and 5 mg of MymA along with the other components in the enzyme assay as described above.

With `NNC(=O)c1ccncc1` [4-pyridinecarbohydrazide(Isoniazid)] as the compound, how does the pIC50 read?
Its pIC50 is 5.31.
